Assay results as given in ChEMBL document CHEMBL1201862, “PubChem BioAssay data set” (2004).
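Step 1: Grow cells in 96-well plates. Step 2: Expose to compound for 48 hours at 5 concentrations. Step 3: Interpolate endpoints linearly; if unreached, use highest concentration. Here, GI50 denotes the concentration required for 50% inhibition of growth.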 The source made the active and inactive calls. Cut-off read from the data, not from the text of the source: active = GI50 up to about 1.1 µM and inactive = higher.

Legend:
Assay in all cases: inhibition of tumour cell growth, NCI panel, 48 h
[1] = system: LOX IMVI
[2] = system: SK-MEL-5
[3] = system: IGROV-1
[4] = system: HCT-15
[5] = system: OVCAR-5
[6] = system: MDA-MB-435
[7] = system: OVCAR-4
[8] = system: COLO 205
[9] = system: SNB-75
[10] = system: Malme-3M
[11] = system: OVCAR-8
[12] = system: SW-620
[13] = system: DU-145
[14] = system: A549
[15] = system: NCI-H23
[16] = system: MDA-N
[17] = system: NCI-H226
[18] = system: UACC-257
[19] = system: HCC 2998

Row | SMILES | GI50 [1] | GI50 [2] | GI50 [3] | GI50 [4] | GI50 [5] | GI50 [6] | GI50 [7] | GI50 [8] | GI50 [9] | GI50 [10] | GI50 [11] | GI50 [12] | GI50 [13] | GI50 [14] | GI50 [15] | GI50 [16] | GI50 [17] | GI50 [18] | GI50 [19]
1 | CNS(=O)(=O)c1ccccc1C(=N)c1ccccc1 | > 100 µM (inactive) | > 100 µM (inactive) | > 100 µM (inactive) | > 100 µM | > 100 µM (inactive) | > 100 µM (inactive) | > 100 µM (inactive) | > 100 µM (inactive) | 56.4 µM (inactive) | > 100 µM (inactive) | > 100 µM (inactive) | > 100 µM (inactive) | > 100 µM (inactive) | > 100 µM (inactive) | > 100 µM (inactive) | > 100 µM (inactive) | > 100 µM (inactive) |  | 
2 | CN(N=O)c1ccc(/C=C/c2ccnc3ccccc23)cc1 | 36.3 µM (inactive) | 37.1 µM (inactive) | 49 µM (inactive) | 54.2 µM | > 100 µM (inactive) | > 100 µM (inactive) | > 100 µM (inactive) | 39.3 µM (inactive) | 25.1 µM (inactive) | 86.3 µM (inactive) | 58.1 µM (inactive) | 73.3 µM (inactive) | 61.5 µM (inactive) | 41.6 µM (inactive) | > 100 µM (inactive) | 75.3 µM (inactive) | 47.8 µM (inactive) | 72.4 µM (inactive) | 
3 | CCCCCCCCCCCCCCCC(=O)Nc1ccn(C2CC(OP(=O)(O)OCC3OC(n4cc(F)c(=O)[nH]c4=O)CC3OC(C)=O)C(CO)O2)c(=O)n1 (centres undefined) | 1.29 µM (inactive) | 11.5 µM (inactive) | 23.9 µM (inactive) | 14.7 µM | > 41.8 µM (inactive) | 34.7 µM (inactive) | 44.7 µM (inactive) | 18.3 µM (inactive) | 13.7 µM (inactive) |  | 3.78 µM (inactive) | 22.9 µM (inactive) | 3.61 µM (inactive) | 0.836 µM (active) | 3.86 µM (inactive) | 42.5 µM (inactive) | 31.2 µM (inactive) | > 57.1 µM (inactive) | 
4 | CNC(=O)N1CN(c2ccccc2)C2(CCN(CCCC(=O)c3ccc(F)cc3)CC2)C1=O | 17.1 µM (inactive) | 11.8 µM (inactive) | 19.5 µM (inactive) | 15.5 µM | 11.7 µM (inactive) |  |  | 4.56 µM (inactive) | 29.3 µM (inactive) | 20 µM (inactive) | 31.5 µM (inactive) | 27.3 µM (inactive) | 11.3 µM (inactive) | 45.1 µM (inactive) | 23.4 µM (inactive) |  | 25.5 µM (inactive) | 7.64 µM (inactive) | 7.82 µM (inactive)
5 | O=C(CC(=O)Nc1ccccc1)N/N=C/c1cc(/N=N/c2ccc(Br)cc2)ccc1O | 4.28 µM (inactive) | 8.79 µM (inactive) | 4.21 µM (inactive) | 3.33 µM |  |  | 2.09 µM (inactive) | 3.93 µM (inactive) | > 10 µM (inactive) | 5.93 µM (inactive) | 3.93 µM (inactive) | 4.84 µM (inactive) | 5.16 µM (inactive) | > 10 µM (inactive) | 2.6 µM (inactive) | 3.72 µM (inactive) |  | 2.08 µM (inactive) | 3.25 µM (inactive)
6 | C1COC2SC3=C(SC(=C4SC5=C(SCCS5)S4)S3)SC2O1 (centres undefined) |  | 80.2 µM (inactive) | 77.6 µM (inactive) | 8.49 µM | > 100 µM (inactive) | 4.07 µM (inactive) | 31.3 µM (inactive) | > 100 µM (inactive) | 71.1 µM (inactive) | 13 µM (inactive) | > 100 µM (inactive) | 68.7 µM (inactive) | > 100 µM (inactive) | > 100 µM (inactive) | > 100 µM (inactive) |  | > 100 µM (inactive) | > 100 µM (inactive) | > 100 µM (inactive)
7 | CC(=O)/C=C1\Nc2sc(C)c(C)c2C(=O)S1 | 44.6 µM (inactive) | 41 µM (inactive) | 29.6 µM (inactive) | 28.9 µM | > 100 µM (inactive) | 47.3 µM (inactive) | 42.2 µM (inactive) | > 100 µM (inactive) | 24 µM (inactive) | 30.6 µM (inactive) | 35.6 µM (inactive) | 63.5 µM (inactive) | 69.7 µM (inactive) | > 100 µM (inactive) | 35.5 µM (inactive) | 88.3 µM (inactive) | 29.2 µM (inactive) | 70 µM (inactive) | 
8 | O=C(COc1ccc(Cl)cc1Cl)N/N=C/C=C/c1ccc([N+](=O)[O-])o1 | 3.27 µM (inactive) | 1.96 µM (inactive) | 1.42 µM (inactive) | 3.37 µM | > 100 µM (inactive) | 2.63 µM (inactive) | 4.35 µM (inactive) |  | 14.3 µM (inactive) | 2.8 µM (inactive) | 3.44 µM (inactive) | 5.37 µM (inactive) |  | 8.24 µM (inactive) | 3.18 µM (inactive) | 3.43 µM (inactive) | 10.5 µM (inactive) |  | 
